The target in one series is T1, Gαs/GDP (Homo sapiens, UniProt P63092).
T1 construct: hexahistidine (N, cleaved yes); made in house; host or cells: E. coli BL21(DE3)
Nature of the series: Bio-layer interferometry (BLI), GDP-bound Gαs. The following applies: read-out: KD, binding to Gαs/GDP. Here is the method: (§1) BLI experiments were performed using an OctetRED384 instrument from ForteBio. All experiments were performed at 25°C using BLI buffer (10 mM HEPES pH 7.4, 150 mM NaCl, 1mM MgCl2, 0.05% Tween 20, 0.1% DMSO, 0.2 mM GNP or GDP). Cyclic peptides or Gα proteins were diluted to a series of concentrations (Final concentrations were indicated in Figures) in BLI buffer plus 10 μM Biotin. Assays were conducted in Greiner 384well, black, flat bottom polypropylene plates containing the protein solutions, BLI buffer plus 10 μM Biotin for dissociation, and serial dilutions of cyclic peptides to be tested.
(§2) Biotinylated proteins or cyclic peptides were immobilized on Streptavidin biosensors by dipping sensors into plate wells containing protein solutions at a concentration of 50–150 nM. Protein loading is around 2–3 nm. Cyclic peptide loading is around 0.2–0.3 nm. Sensors loaded with proteins or cyclic peptides were moved and dipped into wells with BLI buffer plus 10 μM Biotin to block unlabeled Streptavidin. […]
(§3) Raw kinetic data collected were processed with the Data Analysis software provided by the manufacturer using single reference subtraction in which buffer-only reference was subtracted (For GN13 analysis). […] The resulting data were analyzed based on a 1:1 binding model from which kon and koff values were obtained and then Kd values were calculated.

A further series addresses T2, Gαs/GDP and Gβγ(C68S) (Homo sapiens, UniProt P63092).
T2 construct: hexahistidine (N, cleaved yes); made in house; host or cells: E. coli BL21(DE3) (Gαs); Sf9 insect cells (Gβ1γ2)
Nature of the series: FRET based Gαs/Gβγ interaction assay. It is filed as binding.

Series [1] can be described thus: Chemical stability assay in DMEM with 10% FBS. It is filed as in vitro ADME. The following applies: bovine, DMEM with 10% FBS (fetal bovine serum), 37 °C, values represent 95% confidence intervals, read-out: Half-life (hour), chemical stability in DMEM with 10% FBS. Here is the method: (§4) These assays were conducted by Pharmaron Beijing CO., Ltd. Cyclic peptides working solutions were prepared at 10 μM in DMEM with 10% FBS (Avantor, Cat# 76,294–180) or human plasma (Pooled, Male & Female, BioIVT, Cat# HMN666664). The assays were performed in duplicate. Vials were incubated at 37 °C at 60 rpm in a water bath and taken at designated time points including 0, 480, 1080 and 1440 min. For each time point, the initiation of the reaction was staggered so all the time points were terminated with cold acetonitrile containing internal standards (IS, 100 nM alprazolam, 200 nM labetalol, 200 nM Imipramine and 2 μM ketoplofen) at the same time. Samples were vortexed then centrifuged at 4°C to remove proteins. The supernatants from centrifugation were diluted by ultra-pure H2O and used for LC-MS/MS analysis. All calculations were carried out using GraphPad Prism. Remaining percentages of parent compounds at each time point were estimated by determining the peak area ratios from extractedion chromatograms.

A further series can be described thus: Plasma stability assay. It is filed as in vitro ADME. The following applies: both sexes, pooled human plasma, 37 °C, values represent 95% confidence intervals, read-out: Half-life (hour), plasma stability. Here is the method: as §4
A further series deals with T3, Gαs (short isoform) (Homo sapiens, UniProt P63092).
T3 construct: vector His tag with thrombin/Drice site (removed); made in house; host or cells: E. coli BL21(DE3)
Nature of the series: Reconstituted adenylyl cyclase (AC) activity assay, Gαs/GNP-mediated AC activation. It is filed as biochemical. The following applies: Gαs/GNP 125 nM, read-out: IC50, inhibition of Gαs-mediated AC activation. Here is the method:
Cyclic peptides (4 mM stock in DMSO) were diluted to 4X stocks with a series of concentrations in reaction buffer (1x PBS 7.4, 0.1% BSA). Gαs at a concentration of 8.5 mg/mL (about 190 μM) in 20 mM HEPES 8.0, 150 mM NaCl, 5 mM MgCl2, 1 mM EDTA-Na 8.0 was diluted to 0.5 μM in dilution buffer (1x PBS 7.4, 0.1% BSA, 1 mM EDTA-Na 8.0, 2 mM DTT, 0.1mM MgCl2) plus 1mM GNP (For the GDP-bound R201 mutants, GDP was used in the nucleotide exchange experiments). After incubation at room temperature for 1 h to allow nucleotide exchange, 2.5 μL of 4x Gαs dilution was mixed with 1 μL MgCl2 stock (20 mM MgCl2, 1x PBS 7.4, 0.1% BSA) in an OptiPlate-384, White Opaque 384-well Microplate to lock Gαs in GNP-bound state. 2 μL of 5x AC stock (2 μM VC1, 2 nM IIC2, 150 μM FSK, 1x PBS 7.4, 0.1% BSA) was added, followed by addition of 2.5 μL 4X cyclic peptides stock. […] The cAMP concentrations were measured by the LANCE Ultra cAMP kit. […]
cAMP concentrations measurement by the LANCE Ultra cAMP kit: A cAMP standard curve was generated in the same plate using the 50 μM cAMP standard in the kit. […] 10 μL of each diluted sample was mixed with 5 μL of 4X Eu-cAMP tracer and 5 μL of 4X ULight-anti-cAMP in a white, opaque Optiplate-384 microplate, incubated for 1 h at room temperature, and the time-resolved fluorescence resonance energy transfer (TR-FRET) signals were read on a Spark 20M plate reader. […]

A further series addresses T4, Gαs/GNP (Homo sapiens, UniProt P63092).
T4 construct: hexahistidine (N, cleaved yes); made in house; host or cells: E. coli BL21(DE3)
Briefly: Bio-layer interferometry (BLI), GNP-bound Gαs. The following applies: immobilized Gαs/GNP, read-out: KD, binding to Gαs/GNP. On the procedure:
as §1, §2, §3

In series [2] the target is T5, Adenylyl cyclase (C1 domain of ADCY5, VC1, with C2 domain of ADCY2, IIC2) (human, UniProt O95622 442-658; Q08462 871-1082).
T5 construct: C1 domain (VC1) of adenylyl cyclase V; C2 domain (IIC2) of human adenylyl cyclase II, residues 871-1082; Forskolin (100 uM) was present in the assay; also called AC; VC1/IIC2; source: E. coli BL21(DE3), purified (TALON, gel filtration); VC1 and IIC2 mixed with forskolin as one AC stock
Briefly: AlphaScreen or HTRF; TR-FRET competition: biotinylated GNP-bound Gαs (100 nM) with streptavidin XL665, AC (VC1 20 nM, IIC2 40 nM, forskolin 100 uM) with anti-6His-Tb cryptate, GN13 0-40,000 nM, 1 h at room temperature, 1X PBS 7.4, 0.1% BSA, 2 mM DTT, 2 mM MgCl2. The following applies: both partners purified.

Series [3] deals with T6, Adenylyl cyclase (AC): C1 domain of ADCY5 (VC1) with C2 domain of ADCY2 (IIC2), with forskolin (human, UniProt O95622 442-658; Q08462 871-1082).
T6 construct: C1 domain of human ADCY5 (adenylyl cyclase V), residues 442-658; C2 domain of human ADCY2 (adenylyl cyclase II), residues 871-1082; In the TR-FRET assay AC was detected with anti-6His-Tb cryptate; source: E. coli BL21(DE3), each domain purified (TALON, gel filtration), mixed as an AC stock with forskolin
Briefly: AlphaScreen or HTRF; TR-FRET Gαs/adenylyl cyclase interaction assay: 100 nM GNP-bound biotinylated Gαs with streptavidin XL665, 20 nM VC1, 40 nM IIC2, 100 μM forskolin with anti-6His-Tb cryptate, cyclic peptide series; 1X PBS 7.4, 0.1% BSA, 2 mM DTT, 2 mM MgCl2, 1 h at room temperature. The following applies: both partners purified.

Data on four molecules can be found in article PMC9747239, “State-selective modulation of heterotrimeric Gαs signaling with macrocyclic peptides” (Cell, 2022).

Where a SMILES comes first, the peptide text is derived from it. Bridges are numbered along the chain shown (N, C = ends). [ ]: non-standard residue; d: D form. Where only a bound is given, the exact number is not on record here.

Take `CC[C@H](C)[C@@H]1NC(=O)[C@H](CC(C)C)NC(=O)[C@@H](Cc2ccc(O)cc2)NC(=O)CSC[C@@H](C(=O)NCC(N)=O)NC(=O)[C@@H]2CCCN2C(=O)[C@H](CC(C)C)NC(=O)[C@H](CC(N)=O)NC(=O)[C@H](CC(C)C)NC(=O)[C@H](C)NC(=O)[C@H](Cc2c[nH]c3ccccc23)NC(=O)[C@H](CCC(N)=O)NC(=O)[C@H](CCCNC(=N)N)NC(=O)[C@H](Cc2ccccc2)NC(=O)[C@H]([C@@H](C)O)NC1=O` [cpGD20] ({CH2CO}-[dY]LITFRQWALNLPCG-NH2; thioether N-14): the Kd at Gαs/GDP amounted to 14.5 ± 0.4 nM. In addition, on Gαs/GDP and Gβγ(C68S), the midpoint of inhibition, the IC50, lay at 14 ± 0.6 nM. Further, the half-life at 10 μM was 37.4 to 50.3 h in series [1] and 7.16 to 12.7 h in “Plasma stability assay”.

With `CC[C@H](C)[C@@H]1NC(=O)[C@H](C)NC(=O)[C@H](Cc2ccc(O)cc2)NC(=O)[C@H](C(C)C)NC(=O)[C@H](CO)NC(=O)[C@H](CCC(=O)O)NC(=O)[C@H](Cc2ccccc2)NC(=O)[C@@H](Cc2ccc(O)cc2)NC(=O)CSC[C@@H](C(=O)NCC(N)=O)NC(=O)[C@H](CC(C)C)NC(=O)[C@H]([C@@H](C)O)NC(=O)CNC(=O)[C@H](Cc2c[nH]c3ccccc23)NC1=O` [GN13] ({CH2CO}-[dY]FESVYAIWGTLCG-NH2; thioether N-13), at Gαs (short isoform), the IC50 was 4.15 ± 1.13 µM. Also, the Kd at Gαs/GNP came to 190 ± 20 nM. For the same molecule, the values for the half-life at 10 μM (in series [1]; in the series “Plasma stability assay”) were more than 76 h and more than 82 h, respectively.

B1: Biotinylated Avi-Gαs (WT), residues 7-380 of the short isoform of human Gαs (natural protein)
chain: SKTEDQRNEEKAQREANKKIEKQLQKDKQVYRATHRLLLLGAGESGKSTIVKQMRILHVNGFNGDSEKATKVQDIKNNLKEAIETIVAAMSNLVPPVELANPENQFRVDYILSVMNVPDFDFPPEFYEHAKALWEDEGVRACYERSNEYQLIDCAQYFLDKIDVIKQADYVPSDQDLLRCRVLTSGIFETKFQVDKVNFHMFDVGGQRDERRKWIQCFNDVTAIIFVVASSSYNMVIREDNQTNRLQEALNLFKSIWNNRWLRTISVILFLNKQDLLAEKVLAGKSKIEDYFPEFARYTTPEDATPEPGEDPRVTRAKYFIRDEFLRISTASGDGRHYCYPHFTCAVDTENIRRVFNDCRDIIQRMHLRQYELL
modifications: biotin on the Avi tag
notes: Gαs (GNAS), human, short isoform (380 residues), residues 7-380; Loaded with GppNHp (GNP) or GDP as the assay says; also called Biotinylated Gαs/GNP; Biotinylated Gαs/GDP; source: E. coli BL21(DE3), purified (TALON, Source-15Q, gel filtration), biotinylated with BirA; not shown: Avi tag, N-terminal, kept; His6, N-terminal, cleaved
As to B1, in series [2], the binding result is “binds”.

B2: Biotinylated Avi-Gαs (WT), residues 7-380 of the short isoform of human Gαs (natural protein)
chain: SKTEDQRNEEKAQREANKKIEKQLQKDKQVYRATHRLLLLGAGESGKSTIVKQMRILHVNGFNGDSEKATKVQDIKNNLKEAIETIVAAMSNLVPPVELANPENQFRVDYILSVMNVPDFDFPPEFYEHAKALWEDEGVRACYERSNEYQLIDCAQYFLDKIDVIKQADYVPSDQDLLRCRVLTSGIFETKFQVDKVNFHMFDVGGQRDERRKWIQCFNDVTAIIFVVASSSYNMVIREDNQTNRLQEALNLFKSIWNNRWLRTISVILFLNKQDLLAEKVLAGKSKIEDYFPEFARYTTPEDATPEPGEDPRVTRAKYFIRDEFLRISTASGDGRHYCYPHFTCAVDTENIRRVFNDCRDIIQRMHLRQYELL
modifications: biotin on the Avi tag (BirA)
notes: human Gαs (GNAS), short isoform, residues 7-380; Loaded with GNP (GppNHp) or GDP; the nucleotide state is told by the assay; also called Gαs/GNP; Gαs/GDP; source: E. coli BL21(DE3), purified (TALON, Drice cleavage, BirA biotinylation, Source-15Q, gel filtration); not shown: Avi tag, N-terminal, kept; His6, N-terminal, cleaved
As to B2, in series [3], the binding result is listed as “binds”.
